These results are taken from patent US7582681B2, “Synergistic mixtures of 1,2-alkane diols” (Symrise GmbH & Co. KG, priority 2002, dated 2009).

In brackets after ≈: the same amount, converted by molar mass.

What all share (test): MIC, agar dilution method
What all share (format): cell-based
A general note: Agar dilution tests growth on a series of plates holding different concentrations.

Experiment [1] relates to Staphylococcus epidermidis ATCC 12228. The note with it: ATCC12228, Mueller-Hinton agar, 18 h at 36° C. How it is done:
(§1) Petri dishes 9.0 cm in diameter were charged with 13.5 ml freshly prepared Mueller-Hinton agar (Merck, Ref. 1.05437 or Wilkins-Chalgren agar boullion, Oxoid, Ref. CM 643, supplemented with log agar-agar/liter) kept liquid at 50° C., to which the various concentrations of the diluted samples were added in 10% (V/V)=1.5 ml. Mueller-Hinton agar that contained 3% Tween80 (Merck, Ref. 8.22 187) was used for the test germ Malassezia furfur. In each case 5 ml of the samples were diluted in distilled water and made up to 10 ml. The further test concentrations of the particular dilution series, which were prepared in the form of geometric series, were prepared by progressive 1:2 dilution of this batch with distilled water. […] Two agar plates were poured per test concentration and nutrient medium. After solidification and drying (approx. 1 h at 37° C.), the test plates were inoculated in point form with, in each case, 1 μl of the test germ suspensions listed below. To check purity and identity the bacteria that grow aerobically (Brevibacterium epidermidis, Corynebacterium xerosis, Staphylococcus epidermidis) were [lacuna] on Columbia blood agar (BioMérieux, Ref. 43049). The mould Aspergillus niger, the yeast Candida albicans and the two skin fungi Trichophyton mentagrophytes and Epidermophyton floccosum were cultured on Sabouraud agar (BioMérieux, Ref. 43555). Malassezia furfur was cultured on Sabourad HLT agar with disinhibitors (addition of 3% Tween80: 1%; lecithin: 0.3%; histidine: 0.1%; Merck, Ref. 1.18368). Propionibacterium acnes was cultured on Schaedler agar (BioMérieux, Ref. 43273). Further details on the test germs can be taken from Table 5. The preparation of the test germ suspensions of the bacterial germs that grow aerobically was carried out by incubation of Mueller-Hinton broth (Merck, Ref. 1.10293) which had been inoculated with a few individual colonies of the relevant test germs, at 36° C. After a distinct turbidity had been obtained, sterile nutrient broth was added to the suspensions in such an amount that the turbidity thereof corresponded to McFarland standard 0.5 (approx. 1.5×10^8 CFU/ml). All test germ suspensions with the exception of Propionibacterium acnes were diluted again 1:10 with sterile broth and the germ count thereof was determined by the surface method using a Spiralometer (results: see Table 5). The MIC (minimum inhibitory concentration) was regarded as the lowest concentration of active compound at which macroscopically there is no growth. Minimal, barely visible growth or few small individual colonies were evaluated as inhibition.

The subject of experiment [2] is Corynebacterium xerosis ATCC 7711. The note with it: ATCC7711, Mueller-Hinton agar, 18 h at 36° C. How it is done:
as §1

In experiment [3] the test system is Brevibacterium epidermidis ATCC 35514. The settings on record: ATCC35514, Mueller-Hinton agar, 18 h at 36° C. How it is done: as §1
Experiment [4] deals with Propionibacterium acnes ATCC 11829. The note with it: Cutibacterium acnes, ATCC11829, anaerobic, Wilkins-Chalgren agar, 72 h at 30° C. How it is done:
Petri dishes 9.0 cm in diameter were charged with 13.5 ml freshly prepared Mueller-Hinton agar (Merck, Ref. 1.05437 or Wilkins-Chalgren agar boullion, Oxoid, Ref. CM 643, supplemented with log agar-agar/liter) kept liquid at 50° C., to which the various concentrations of the diluted samples were added in 10% (V/V)=1.5 ml. Mueller-Hinton agar that contained 3% Tween80 (Merck, Ref. 8.22 187) was used for the test germ Malassezia furfur. In each case 5 ml of the samples were diluted in distilled water and made up to 10 ml. The further test concentrations of the particular dilution series, which were prepared in the form of geometric series, were prepared by progressive 1:2 dilution of this batch with distilled water. […] Two agar plates were poured per test concentration and nutrient medium. After solidification and drying (approx. 1 h at 37° C.), the test plates were inoculated in point form with, in each case, 1 μl of the test germ suspensions listed below. To check purity and identity the bacteria that grow aerobically (Brevibacterium epidermidis, Corynebacterium xerosis, Staphylococcus epidermidis) were [lacuna] on Columbia blood agar (BioMérieux, Ref. 43049). […] Minimal, barely visible growth or few small individual colonies were evaluated as inhibition.

Usually MIC stands for the lowest concentration that inhibits growth of the organism. A low value points to a more susceptible organism. `CCCCCCC(O)CO` (centres unmarked) [OC3, 1,2-octanediol]: the MIC in experiment [1] is 12.5 mg/mL (≈ 85.5 mM); in experiment [2] it was 6.25 mg/mL (≈ 42.7 mM); in experiment [3] it was 3.12 mg/mL (≈ 21.4 mM); in experiment [4], 6.25 mg/mL (≈ 42.7 mM).
`CCCCC(O)CO` (centres unmarked) [HE3, 1,2-hexanediol]: the minimum inhibitory concentration (MIC) in experiment [1] is 25 mg/mL (≈ 212 mM); in experiment [2], 12.5 mg/mL (≈ 106 mM); in experiment [3], 25 mg/mL (≈ 212 mM); in experiment [4], 25 mg/mL (≈ 212 mM).
